Test results: PubChem BioAssay (NCI)
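Cultured in 96-well plates, cells were exposed to test compound for 48 hours across five concentrations. Abbreviation: GI50, concentration required for 50% inhibition of growth. TGI is the concentration that stops growth completely.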

Tests used:
Experiment in all cases: DTP human tumour cell line panel, 48 h
[1] = system: UO-31 renal
[2] = system: OVCAR-3 ovarian
[3] = system: NCI/ADR-RES ovarian
[4] = system: SK-MEL-2 melanoma
[5] = system: ACHN renal
[6] = system: A549 NSCLC
[7] = system: RPMI-8226 leukemia
[8] = system: SK-MEL-5 melanoma
[9] = system: SF-539 CNS
[10] = system: HS 578T breast

## CC1=C(C(=O)OCCc2ccc([N+](=O)[O-])cc2)C(c2ccccc2[N+](=O)[O-])C(C(=O)OC(C)C)=C(C)N1 (stereo not given)
[1]
  TGI: > 100 µM
[2]
  TGI: > 100 µM
[3]
  TGI: 20 µM
[4]
  TGI: 40.9 µM
[5]
  TGI: > 100 µM
[6]
  TGI: > 100 µM
[7]
  TGI: > 100 µM
[8]
  TGI: 5.14 µM
[9]
  TGI: > 100 µM
[10]
  TGI: > 100 µM

## Cc1cc2ccccc2c[n+]1CC(O)C[n+]1cc2ccccc2cc1C
[1]
  TGI: > 100 µM
[2]
  TGI: > 100 µM
[3]
  TGI: > 100 µM
[4]
  TGI: > 100 µM
[5]
  TGI: > 100 µM
[6]
  TGI: > 100 µM
[7]
  TGI: > 100 µM
[8]
  TGI: > 100 µM
[9]
  TGI: > 100 µM
[10]
  TGI: > 100 µM

## O=C(CC(O)(C(F)(F)F)C(F)(F)F)C(CCCl)C(O)(C(F)(F)F)C(F)(F)F (stereo not given)
[1]
  TGI: 73.3 µM
[2]
  TGI: 65.3 µM
[3]
  TGI: 46.7 µM
[4]
  TGI: > 100 µM
[5]
  TGI: > 100 µM
[6]
  TGI: > 100 µM
[7]
  TGI: 61.1 µM
[8]
  TGI: 71 µM
[9]
  TGI: > 100 µM
[10]
  TGI: > 100 µM

## Cc1csc2c1C(=O)c1ccsc1C2=O
[1]
  TGI: 8.85 µM
[2]
  TGI: 5.44 µM
[3]
  TGI: 5.9 µM
[4]
  TGI: 4.51 µM
[5]
  TGI: 10.7 µM
[6]
  TGI: 3.55 µM
[7]
  TGI: 20.1 µM
[8]
  TGI: 1.82 µM
[9]
  TGI: 3.93 µM
[10]
  TGI: 4.37 µM

## N#CC1=C(N)C(C#N)(C#N)C(c2ccc(F)cc2)C=C1C1CC1 (stereo not given)
[1]
  TGI: 27.2 µM
[2]
  TGI: 18.1 µM
[3]
  TGI: 41.8 µM
[4]
  TGI: 19.4 µM
[5]
  TGI: 25.6 µM
[6]
  TGI: 41.7 µM
[7]
  TGI: 40.4 µM
[8]
  TGI: 16.2 µM
[9]
  TGI: 2.42 µM
[10]
  TGI: > 100 µM

## O=C(O)C(CCc1ccccn1)c1ccccc1 (stereo not given)
[1]
  TGI: > 100 µM
[2]
  TGI: > 100 µM
[3]
  TGI: > 100 µM
[4]
  TGI: > 100 µM
[5]
  TGI: > 100 µM
[6]
  TGI: > 100 µM
[7]
  TGI: > 100 µM
[8]
  TGI: > 100 µM
[9]
  TGI: > 100 µM
[10]
  TGI: > 100 µM

## N#Cc1c(NC(=O)c2ccccc2)sc2c1CCC(=O)C2
[1]
  GI50: 1.05 µM
  TGI: 2.24 µM
[2]
  GI50: 1.04 µM
  TGI: 2.43 µM
[3]
  GI50: 1.33 µM
  TGI: 11.8 µM
[4]
  GI50: 2.45 µM
  TGI: 8.65 µM
[5]
  GI50: 0.906 µM
  TGI: 2.3 µM
[6]
  GI50: 6.7 µM
  TGI: > 100 µM
[7]
  GI50: 0.305 µM
  TGI: 1.32 µM
[8]
  GI50: 1.65 µM
  TGI: 3.22 µM
[9]
  GI50: 0.78 µM
  TGI: 2.59 µM
[10]
  GI50: 1.92 µM
  TGI: 7.32 µM
